# Results as given in patent US20260183320A1, “METHOD FOR TREATING CANCER BY COMBINING ALKYLATING AGENT PRODRUG AND CELL CYCLE INHIBITOR” (ASCENTAWITS PHARMACEUTICALS, LTD., priority 2022, published 2026).
# Key:
# [1] = system: wild-type p53-expressing (H460) cell line; experiment: CTG cell proliferation assay, H460 cell line; format: cell-based; conditions: for IC50: Homo sapiens, 72 h
# Experimental: (§1) Each CTG cell proliferation assay included the steps as follows: • 1) An H460 or HT29 cell suspension was added to a 96-well plate at 100 μL per well so that each well contained 2000 or 10000 cells. • 2) The cells were incubated overnight at 37° C. in an incubator with 5% CO2. • 3) Treatment with Compounds
# (§2) Combination therapy: 1 μL of adavosertib (at four concentrations), AZD7762 (at four concentrations), palbociclib (at four concentrations) or ceralasertib (at three concentrations) was added to each well and shaken gently until homogeneous mixing.
# (§3) 7) Chemiluminescence was read for 1000 ms on a multimode microplate reader. • 8) IC50 (half-maximal inhibitory concentration) values of the compounds were calculated using the GraphPad Prism 5 software. 1.
# [2] = system: p53-deficient (HT29) cell line; experiment: CTG cell proliferation assay, HT29 cell line; format: cell-based; conditions: for IC50: Homo sapiens, 72 h
# Experimental: as §1, §2, §3
# [3] = H460 (wild-type p53), all concentrations
# [4] = H460 (wild-type p53), both drugs at low concentrations
# [5] = HT29 (p53-deficient), various concentrations, also low
smiles,measurement,setting,value
O=[N+]([O-])c1ccc(C(OP(=O)(N2CC2)N2CC2)C(F)(F)F)cc1Oc1ccc(-c2ccc(F)cc2)c(F)c1 (stereo not shown) [AST],additive cytotoxic effect in combination therapy with AZD7762,"[1]; H460 (wild-type p53), AZD7762 160 nM",certain additive cytotoxic effects
same,additive cytotoxic effect in combination therapy with adavosertib,[1]; [3],did not exhibit any additive toxic effects
same,additive cytotoxic effect in combination therapy with palbociclib,[1]; [3],did not exhibit any significant additive cytotoxic effects
same,additive cytotoxic effect in combination therapy with AZD7762,[1]; [4],not significant
same,additive cytotoxic effect in combination therapy with adavosertib,[1]; [4],not significant
same,additive cytotoxic effect in combination therapy with ceralasertib,[1]; [4],not significant
same,additive cytotoxic effect in combination therapy with AZD7762,"[1]; H460 (wild-type p53), medium and high concentrations",certain additive cytotoxic effects
same,additive cytotoxic effect in combination therapy with ceralasertib,"[1]; H460 (wild-type p53), medium or high concentration",certain additive cytotoxic effects
same,additive cytotoxic effect in combination therapy with adavosertib,"[1]; H460 (wild-type p53), medium or high concentrations",certain additive cytotoxic effects
same,additive cytotoxic effect in combination therapy with AZD7762,"[1]; H460 (wild-type p53), other concentrations than 160 nM AZD7762",did not exhibit any additive cytotoxic effects
same,Ratio single/combo,"[1]; H460, IC50 monotherapy / IC50 with 0.5 nM AZD7762",1.20
same,Ratio single/combo,"[1]; H460, IC50 monotherapy / IC50 with 0.5 nM adavosertib",1.24
same,Ratio single/combo,"[1]; H460, IC50 monotherapy / IC50 with 6.4 nM AZD7762",1.00
same,Ratio single/combo,"[1]; H460, IC50 monotherapy / IC50 with 6.4 nM adavosertib",0.90
same,Ratio single/combo,"[1]; H460, IC50 monotherapy / IC50 with 160 nM AZD7762",3.81
same,Ratio single/combo,"[1]; H460, IC50 monotherapy / IC50 with 160 nM adavosertib",1.19
same,Ratio single/combo,"[1]; H460, IC50 monotherapy / IC50 with 800 nM adavosertib",1.41
same,Ratio combo/single,"[1]; H460, IC50 with 0.05 nM palbociclib / IC50 monotherapy",1.08
same,Ratio combo/single,"[1]; H460, IC50 with 0.64 nM palbociclib / IC50 monotherapy",1.35
same,Ratio combo/single,"[1]; H460, IC50 with 400 nM palbociclib / IC50 monotherapy",2.55
same,IC50,"[1]; NCI-H460, 72 h, H460, monotherapy",4.08 nM
same,IC50,"[1]; NCI-H460, H460, with 0.05 nM palbociclib (2 h pretreatment)",4.39 nM
same,IC50,"[1]; NCI-H460, H460, with 0.5 nM AZD7762 (2 h pretreatment)",3.4 nM
same,IC50,"[1]; NCI-H460, H460, with 0.5 nM adavosertib (2 h pretreatment)",3.29 nM
same,IC50,"[1]; NCI-H460, H460, with 0.64 nM palbociclib (2 h pretreatment)",5.5 nM
same,IC50,"[1]; NCI-H460, H460, with 6.4 nM AZD7762 (2 h pretreatment)",4.08 nM
same,IC50,"[1]; NCI-H460, H460, with 6.4 nM adavosertib (2 h pretreatment)",4.53 nM
same,IC50,"[1]; NCI-H460, H460, with 160 nM AZD7762 (2 h pretreatment)",1.07 nM
same,IC50,"[1]; NCI-H460, H460, with 160 nM adavosertib (2 h pretreatment)",3.44 nM
same,IC50,"[1]; NCI-H460, H460, with 400 nM palbociclib (2 h pretreatment)",10.4 nM
same,IC50,"[1]; NCI-H460, H460, with 800 nM adavosertib (2 h pretreatment)",2.89 nM
same,additive cytotoxic effect in combination therapy with palbociclib,"[2]; HT29 (p53-deficient), drugs at low concentrations",certain additive cytotoxic effects
same,additive cytotoxic effect in combination therapy with ceralasertib,"[2]; HT29 (p53-deficient), various concentrations",significant additive cytotoxic effects
same,additive cytotoxic effect in combination therapy with AZD7762,[2]; [5],significant additive cytotoxic effects
same,additive cytotoxic effect in combination therapy with adavosertib,[2]; [5],significant additive cytotoxic effects
same,additive cytotoxic effect in combination therapy with palbociclib,[2]; [5],significant additive cytotoxic effects
same,Ratio single/combo,"[2]; HT29, IC50 monotherapy / IC50 with 100 nM AZD7762",95.61
same,Ratio single/combo,"[2]; HT29, IC50 monotherapy / IC50 with 100 nM adavosertib",44.97
same,Ratio single/combo,"[2]; HT29, IC50 monotherapy / IC50 with 130 nM AZD7762",105.70
same,Ratio single/combo,"[2]; HT29, IC50 monotherapy / IC50 with 130 nM adavosertib",95.54
same,Ratio single/combo,"[2]; HT29, IC50 monotherapy / IC50 with 160 nM AZD7762",107.78
same,Ratio single/combo,"[2]; HT29, IC50 monotherapy / IC50 with 160 nM adavosertib",114.24
same,IC50,"[2]; HT-29, 72 h, HT29, monotherapy",1370 nM
same,IC50,"[2]; HT-29, HT29, with 50 nM palbociclib (2 h pretreatment)",1060 nM
same,IC50,"[2]; HT-29, HT29, with 100 nM AZD7762 (2 h pretreatment)",14.3 nM
same,IC50,"[2]; HT-29, HT29, with 100 nM adavosertib (2 h pretreatment)",30.5 nM
same,IC50,"[2]; HT-29, HT29, with 130 nM AZD7762 (2 h pretreatment)",13 nM
same,IC50,"[2]; HT-29, HT29, with 130 nM adavosertib (2 h pretreatment)",14.4 nM
same,IC50,"[2]; HT-29, HT29, with 160 nM AZD7762 (2 h pretreatment)",12.7 nM
same,IC50,"[2]; HT-29, HT29, with 160 nM adavosertib (2 h pretreatment)",12 nM
same,IC50,"[2]; HT-29, HT29, with 1000 nM palbociclib (2 h pretreatment)",1740 nM
same,IC50,"[2]; HT-29, HT29, with 5000 nM palbociclib (2 h pretreatment)",1570 nM
